Data on one compound can be found in patent US6988613B2, “Composition for IVF” (Novo Nordisk A/S, priority 2001, dated 2006).

Converted amounts (≈) assume the structure as drawn. Where two headings read alike, the source gives them in different places.

Data set [1] is described as follows: Solubility of FF-MAS in water, ethanol and ethanol/water. Type of data set: physicochemical. As for the experimental part:
The solubility of a preferred MAS, i.e., FF-MAS, in water is very low, i.e., approximately 20 picogram/ml (corresponding to 2×10^−5 μg/ml). […] According to our preliminary investigations, the highest solubility of FF-MAS in a mixture of ethanol and water (1:2.5) is approximately 0.4 mg/ml. Several other MASs have a similar low solubility in water.

Data set [2] has as its system oocytes obtained from immature female mice. Put plainly: Germinal vesicle breakdown (GVB) test on mouse oocytes. The class given is cell-based. How it is done: Oocytes were obtained from immature female mice (C57BL/6J×DBA/2J F1, Bomholtgaard, Denmark) weighing 13–16 grams, that were kept under controlled temperature (20–22° C.), light (lights on 06.00–18.00) and relative humidity (50–70%). The mice received an intraperitoneal injection of 0.2 ml gonadotropins (Gonal-F, Serono) containing 20 IU FSH and 48 hours later the animals were killed by cervical dislocation. The ovaries were dissected out and the oocytes were isolated in Hx-medium (see below) under a stereo microscope by manual rupture of the follicles using a pair of 27 gauge needles. Spherical oocytes displaying an intact germinal vesicle (hereinafter designated GV) were divided in cumulus enclosed oocytes (hereinafter designated CEO) and naked oocytes (hereinafter designated NO) and placed in α-minimum essential medium (α-MEM without ribonucleosides, Gibco BRL, Cat. No. 22561) supplemented with 3 mg/ml bovine serum albumin (BSA, Sigma Cat. No. A-7030), 5 mg/ml human serum albumin (HSA, State Serum Institute, Denmark), 0.23 mM pyruvate (Sigma, Cat. No S-8636), 2 mM glutamine (Flow Cat. No. 16-801), 100 IU/ml penicillin and 100 μg/ml streptomycin (Flow, Cat No. 16-700). This medium was supplemented with 3 mM hypoxanthine (Sigma Cat. No. H-9377) and designated Hx-medium.
The oocytes were rinsed three times in Hx-medium and oocytes of uniform size were divided into groups of CEO and NO. CEO and NO were cultured in 4-well multidishes (Nunclon, Denmark) in which each well contained 0.4 ml of Hx-medium and the compound to be tested in a concentration of 10 μM. One control well (i.e., 35–45 oocytes cultured in identical medium with no addition of test compound) was always cultured simultaneously with 3 test wells (35–45 oocytes per well supplemented with test compound).
The oocytes were cultured in a humidified atmosphere of 5% CO2 in air for 24 hours at 37° C. By the end of the culture period, the number of oocytes with GV, GVB and polar bodies (hereinafter designated PB), respectively, were counted using a stereo microscope (Wildt, Leica MZ 12). The percentage of GVB, defined as percentage of oocytes undergoing GVB per total number of oocytes in that well, was calculated as: % GVB=((number of GVB+number of PB)/total number of oocytes)×100.
FF-MAS was dissolved in ethanol (25 μg FF-MAS/ml ethanol). HSA is dissolved in water (1%). 100 μl of the above mentioned ethanol solution (corresponding to the amount of FF-MAS needed for one treatment) and 350 μl of the above-mentioned HSA solution were mixed in a glass vial. The resulting mixture of FF-MAS and HSA was evaporated to dryness by airflow of argon. After the liquid was evaporated, the vial was sealed by a rubber septum and the vial was placed at a temperature of 2–8° C. At the time for usage, 500 μl of freshly prepared IVM media was added to the residue in the vial and shaken calmly for 1–2 minutes. The IVM media used was TCM 199 with Earle's salts (Sigma) to which was added 0.8% HSA, 2 mM L-glutamine, 0.25 mM sodium pyrovate, 100 IU/ml penicillin G, and 100 microgram/ml streptomycin. The liquid was transferred to a 4-well dish and the composition was tested on oocytes obtained from immature female mice. Percentage GVB obtained, see below in Table 1.
FF-MAS was dissolved in ethanol (20 μg FF-MAS/ml ethanol) and HSA was dissolved in water (1%). 100 μl of the above mentioned ethanol solution (corresponding to the amount of FF-MAS needed for one treatment) and 250 μl of the above-mentioned HSA solution were mixed and 350 μl of the combined liquid was aliquoted in a glass vials. The vials were placed at −80° C. for one night. All samples were thereafter freeze-dried at −45° C. for 16 hours followed by 8 hours freeze drying at −15° C. and 8 hours freeze drying at +25° C. Before the freeze dryer was opened all vials were automatically sealed with rubber septums by a pressure of nitrogen. The vials were closed with a capsule and placed at a temperature of 2–8° C. […]

In general, solubility refers to the concentration that dissolves in the medium under given conditions. Regarding `CC(C)=CCC[C@@H](C)[C@H]1CC=C2C3=C(CC[C@@]21C)[C@@]1(C)CC[C@H](O)C(C)(C)[C@@H]1CC3` [FF-MAS, 4,4-dimethyl-5α-cholesta-8,14,24-triene-3β-ol], the solubility in data set [1] (ethanol/water (1:2.5), aqueous with cosolvent or surfactant or cyclodextrin, ethanol and water (1:2.5), preliminary investigations, read-out: highest solubility of FF-MAS in a mixture of ethanol and water) was about 400 µg/mL (≈ 0.974 mM); in data set [1] (organic solvent or mixture, in ethanol, read-out: solubility of FF-MAS in ethanol), about 12000 µg/mL (≈ 29.2 mM). In data set [1] (in water), the “solubility of FF-MAS in water” value was “approximately 20 picogram/ml”. In addition, the “% GVB” value is recorded as 86% in data set [2] (Dose FF-MAS 0.24 μmol/l, in combination with HSA 6 mg/ml, Example 3); 88% in data set [2] (Dose FF-MAS 0.48 μmol/l, in combination with HSA 6 mg/ml, Example 3); 91% in data set [2] (Dose FF-MAS 1.2 μmol/l, in combination with HSA 6 mg/ml, Example 3); 97% in data set [2] (Dose FF-MAS 2.4 μmol/l, in combination with HSA 6 mg/ml, Example 3); 43% in data set [2] (Dose FF-MAS 10 μmol/l, internal control dissolved in ethanol, Example 3); 85% in data set [2] (Dose FF-MAS 10 μmol/l, internal control dissolved in ethanol, Example 4, first test). Further, the “% GVB” value in data set [2] (Dose FF-MAS 10 μmol/l, internal control dissolved in ethanol, Example 4, second test) stood at 83%; in data set [2] (Dose FF-MAS 10 μmol/l, internal control dissolved in ethanol, Example 8, 5 tests), 85%.
